{"source": "PubChem BioAssay AID330", "about": "(DTP/NCI, 2004)", "test_system": "P388 leukemia ip, CD2F1 mice, survival T/C", "experiment": "NCI In Vivo Anticancer Drug Screen. Data for tumor model P388 Leukemia (intraperitoneal) in CD2F1 (CDF1) mice", "details": "endpoint: median survival time, higher = longer survival", "procedure,_shortened": "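Mice carrying the transplanted tumor received test compound or vehicle. Survival was recorded in each group, and the value is the treated-group measurement divided by that of the vehicle-treated control group.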", "key": {"[1]": {"details": "dose: 50.0 mg/kg/injection, schedule: Q01DX009 (ip), vehicle: saline with Tween-80"}, "[2]": {"details": "dose: 100.0 mg/kg/injection, schedule: Q01DX009 (ip), vehicle: saline with Tween-80"}, "[3]": {"details": "dose: 200.0 mg/kg/injection, schedule: Q01DX009 (ip), vehicle: saline with Tween-80"}, "[4]": {"details": "dose: 12.5 mg/kg/injection, schedule: Q01DX009 (ip), vehicle: saline with Tween-80"}, "[5]": {"details": "dose: 25.0 mg/kg/injection, schedule: Q01DX009 (ip), vehicle: saline with Tween-80"}, "[6]": {"details": "dose: 50.0 mg/kg/injection, schedule: Q01DX005 (ip), vehicle: saline with Tween-80"}, "[7]": {"details": "dose: 100.0 mg/kg/injection, schedule: Q01DX005 (ip), vehicle: saline with Tween-80"}, "[8]": {"details": "dose: 200.0 mg/kg/injection, schedule: Q01DX005 (ip), vehicle: saline with Tween-80"}, "[9]": {"details": "dose: 50.0 mg/kg/injection, schedule: Q01DX005 (ip), vehicle: Klucel (hydroxypropylcellulose) (HPC)"}, "[10]": {"details": "dose: 100.0 mg/kg/injection, schedule: Q01DX005 (ip), vehicle: Klucel (hydroxypropylcellulose) (HPC)"}, "[11]": {"details": "dose: 200.0 mg/kg/injection, schedule: Q01DX005 (ip), vehicle: Klucel (hydroxypropylcellulose) (HPC)"}}, "note": "Values joined by “and” are separate entries in the source; they are usually repeats but may differ in a detail not shown here. Equal entries are not always repeated. Toxic doses and inconclusive results are not listed."}
{"smiles": "Nc1nc(N)c(N=O)c(Nc2ccccc2)n1", "values": [{"measurement": "T/C", "setting": "[1]", "value": "97 % of control"}, {"measurement": "T/C", "setting": "[2]", "value": "99 % of control"}, {"measurement": "T/C", "setting": "[3]", "value": "96 % of control"}]}
{"smiles": "COc1cc(C=Nc2cccc(Br)c2)ccc1N(CCCl)CCCl", "values": [{"measurement": "T/C", "setting": "dose: 3.3 mg/kg/injection, schedule: Q01DX009 (ip), vehicle: saline with Tween-80", "value": "154 % of control"}, {"measurement": "T/C", "setting": "dose: 5.0 mg/kg/injection, schedule: Q01DX009 (ip), vehicle: saline with Tween-80", "value": "200 % of control"}, {"measurement": "T/C", "setting": "dose: 5.56 mg/kg/injection, schedule: Q01DX009 (ip), vehicle: saline with Tween-80", "value": "209 % of control"}, {"measurement": "T/C", "setting": "dose: 8.33 mg/kg/injection, schedule: Q01DX009 (ip), vehicle: saline with Tween-80", "value": "186 % of control"}, {"measurement": "T/C", "setting": "dose: 11.0 mg/kg/injection, schedule: Q04DX003 (ip), vehicle: other", "value": "165 % of control"}, {"measurement": "T/C", "setting": "[4]", "value": "204 % of control and 227 % of control"}, {"measurement": "T/C", "setting": "dose: 16.5 mg/kg/injection, schedule: Q04DX003 (ip), vehicle: other", "value": "184 % of control"}, {"measurement": "T/C", "setting": "dose: 18.7 mg/kg/injection, schedule: Q01DX009 (ip), vehicle: saline with Tween-80", "value": "186 % of control"}, {"measurement": "T/C", "setting": "[5]", "value": "166 % of control"}, {"measurement": "T/C", "setting": "dose: 25.0 mg/kg/injection, schedule: Q04DX003 (ip), vehicle: other", "value": "230 % of control"}, {"measurement": "T/C", "setting": "dose: 37.5 mg/kg/injection, schedule: Q04DX003 (ip), vehicle: other", "value": "107 % of control"}]}
{"smiles": "[Cl][Sn]([CH2]C[CH2][Sn]([Cl])([c]1ccccc1)[c]1ccccc1)([c]1ccccc1)[c]1ccccc1", "values": [{"measurement": "T/C", "setting": "dose: 3.12 mg/kg/injection, schedule: Q01DX005 (ip), vehicle: Klucel (hydroxypropylcellulose) (HPC)", "value": "99 % of control"}, {"measurement": "T/C", "setting": "dose: 6.25 mg/kg/injection, schedule: Q01DX005 (ip), vehicle: Klucel (hydroxypropylcellulose) (HPC)", "value": "99 % of control"}, {"measurement": "T/C", "setting": "dose: 12.5 mg/kg/injection, schedule: Q01DX005 (ip), vehicle: Klucel (hydroxypropylcellulose) (HPC)", "value": "98 % of control"}]}
{"smiles": "C#CC(OS(=O)(=O)C(F)(F)F)=C1C2CC3CC(C2)CC1C3", "values": [{"measurement": "T/C", "setting": "[6]", "value": "100 % of control"}, {"measurement": "T/C", "setting": "[7]", "value": "98 % of control"}, {"measurement": "T/C", "setting": "[8]", "value": "100 % of control"}]}
{"smiles": "CC(C)(C)C(CCC(=O)O)CC(=O)O", "note": "(stereo not given)", "values": [{"measurement": "T/C", "setting": "[1]", "value": "100 % of control"}, {"measurement": "T/C", "setting": "[2]", "value": "95 % of control"}, {"measurement": "T/C", "setting": "dose: 100.0 mg/kg/injection, schedule: Q04DX003 (ip), vehicle: saline", "value": "95 % of control"}, {"measurement": "T/C", "setting": "[3]", "value": "100 % of control"}, {"measurement": "T/C", "setting": "dose: 200.0 mg/kg/injection, schedule: Q04DX003 (ip), vehicle: saline", "value": "91 % of control"}]}
{"smiles": "CN1C(=O)N(CCCl)C(=O)C(C)(C2=CCCCC2)C1=O", "note": "(stereo not given)", "values": [{"measurement": "T/C", "setting": "dose: 50.0 mg/kg/injection, schedule: Q01DX009 (ip), vehicle: Klucel (hydroxypropylcellulose) (HPC)", "value": "92 % of control"}, {"measurement": "T/C", "setting": "dose: 100.0 mg/kg/injection, schedule: Q01DX009 (ip), vehicle: Klucel (hydroxypropylcellulose) (HPC)", "value": "92 % of control"}, {"measurement": "T/C", "setting": "dose: 200.0 mg/kg/injection, schedule: Q01DX009 (ip), vehicle: Klucel (hydroxypropylcellulose) (HPC)", "value": "90 % of control"}]}
{"smiles": "CCCCCCCCCCCC[N+]1(CCCCCCCCCCCC)CCCC(C)C1", "note": "(stereo not given)", "values": [{"measurement": "T/C", "setting": "dose: 0.75 mg/kg/injection, schedule: Q01DX009 (ip), vehicle: Klucel (hydroxypropylcellulose) (HPC)", "value": "113 % of control"}]}
{"smiles": "CC1Cc2c([nH]c3ccc(Cl)cc23)CN1", "note": "(stereo not given)", "values": [{"measurement": "T/C", "setting": "dose: 3.12 mg/kg/injection, schedule: Q01DX009 (ip), vehicle: saline with Tween-80", "value": "106 % of control"}, {"measurement": "T/C", "setting": "dose: 6.25 mg/kg/injection, schedule: Q01DX009 (ip), vehicle: saline with Tween-80", "value": "100 % of control"}, {"measurement": "T/C", "setting": "[4]", "value": "101 % of control"}, {"measurement": "T/C", "setting": "[5]", "value": "101 % of control"}]}
{"smiles": "COc1ccc(O)c(C(C)=O)c1", "values": [{"measurement": "T/C", "setting": "[9]", "value": "102 % of control"}, {"measurement": "T/C", "setting": "[10]", "value": "100 % of control"}, {"measurement": "T/C", "setting": "[11]", "value": "98 % of control"}]}
{"smiles": "NC(=O)C(F)C(N)C(=O)O", "note": "(stereo not given)", "values": [{"measurement": "T/C", "setting": "dose: 12.5 mg/kg/injection, schedule: Q01DX009 (ip), vehicle: suspension in saline", "value": "100 % of control"}, {"measurement": "T/C", "setting": "dose: 25.0 mg/kg/injection, schedule: Q01DX009 (ip), vehicle: suspension in saline", "value": "103 % of control"}, {"measurement": "T/C", "setting": "dose: 50.0 mg/kg/injection, schedule: Q01DX009 (ip), vehicle: suspension in saline", "value": "97 % of control"}]}
{"smiles": "O=Nc1c2cc3ccccc3[nH]c-2c2ccccc12", "values": [{"measurement": "T/C", "setting": "[6]", "value": "101 % of control"}, {"measurement": "T/C", "setting": "[7]", "value": "93 % of control"}, {"measurement": "T/C", "setting": "[8]", "value": "97 % of control"}]}
{"smiles": "CCn1ccc(NS(=O)(=O)c2ccc(N)cc2)nc1=O", "values": [{"measurement": "T/C", "setting": "[9]", "value": "98 % of control"}, {"measurement": "T/C", "setting": "[10]", "value": "105 % of control"}, {"measurement": "T/C", "setting": "[11]", "value": "100 % of control"}]}
{"smiles": "Cc1cccc(Oc2ccc(C(F)(F)F)cc2[N+](=O)[O-])c1C", "values": [{"measurement": "T/C", "setting": "dose: 50.0 mg/kg/injection, schedule: Q01DX009 (ip), vehicle: saline", "value": "99 % of control"}, {"measurement": "T/C", "setting": "dose: 100.0 mg/kg/injection, schedule: Q01DX009 (ip), vehicle: saline", "value": "99 % of control"}]}
{"smiles": "OCC1COC(c2ccccc2)=N1", "note": "(stereo not given)", "values": [{"measurement": "T/C", "setting": "[9]", "value": "100 % of control"}, {"measurement": "T/C", "setting": "[10]", "value": "99 % of control"}, {"measurement": "T/C", "setting": "[11]", "value": "100 % of control"}]}
